Test results as given in US11224601B1, “Compounds that inhibits MCL-1 protein” (priority 2017, dated 2022).
Like-named read-outs stand apart in the source and are kept apart here.

Assays:
[1] = test system: OPM-2 human multiple myeloma cell line; test: Cell Viability Assay (OPM-2 10 FBS), CellTiter-Glo; format: cell-based; details: Homo sapiens, OPM-2, 16 h
Experimental: Cell Viability Assay (OPM-2 10 FBS)
The human multiple myeloma cell line, OPM-2, was cultured in complete growth medium containing RPMI 1640 and 10% fetal bovine serum (FBS). Cells were seeded into 384-well plates at 3000 cells/well density in complete growth medium containing 10% FBS, and incubated for 16 h with serially diluted test compounds in a 37° C. incubator with 5% CO2. Cell viability was tested using CellTiter-Glo® assay (Promega, Madison, Wis.) according to the manufacturer recommendations. Luminescence was determined using an EnVision® Multilabel plate reader 25 min after the addition of detection reagent. IC50 values were then calculated with Xlfit using a logistical 4-parameter fit model in GraphPad Prism (GraphPad Software, San Diego, Calif.) or in Genedata Screener® (Genedata, Basel, Switzerland).

[2] = molecular target: recombinant human Mcl-1 (Mcl-1/Bim interaction) (Homo sapiens (Human), UniProt Q07820); test: biochemical; format: binding; details: cell free Mcl-1:Bim TR-FRET
Experimental: Cell free Mcl-1:Bim Affinity Assay (Mcl-1 HTRF)
The inhibition of the Mcl-1/Bim interaction was measured using a time-resolved fluorescence resonance energy transfer (TR-FRET) assay. The recombinant human Mcl-1 (C-terminally 6×His tagged Mcl-1 containing residues 171-327) was generated at Amgen Inc (Thousand Oaks, Calif.). A biotinylated peptide derived from human Bim (residues 51-76) was purchased from CPC Scientific (San Jose, Calif.). The TR-FRET assay was conducted in a 384-well white OptiPlate™ (PerkinElmer, Waltham, Mass.) in a total volume of 40 μL. The reaction mixture contained 0.1 nM Mcl-1(171-327), 0.05 nM biotin-Bim(51-76), 0.05 nM LANCE® Eu-W1024 Anti-6×His (PerkinElmer), 0.072 nM Streptavidin-Xlent (Cisbio, Bedford, Mass.), and serially diluted test compounds in the binding buffer of 20 mM Hepes, pH 7.5, 150 mM NaCl, 0.016 mM Brij® 35, and 1 mM dithiothreitol. Test compounds were pre-incubated with Mcl-1(171-327) and biotin-Bim (51-76) for 60 min before addition of the detection mixture (LANCE® Eu-W1024 Anti-6×His and Streptavidin-Xlent). The reaction plates were further incubated overnight and then were read on an Envision® multimode reader (PerkinElmer). Fluorescence signals were measured at 620 nm (40-nm bandwidth) and 665 nm (7.5-nm bandwidth) with a 60 μs delay after excitation at 320 nm (75-nm bandwidth). The signal ratio at 665/620 nm corresponded to the Mcl-1/Bim interaction and was used in all data analyses. The IC50 values of test compounds were determined from duplicate data by analyzing competition curves using a four-parameter sigmoidal model in GraphPad Prism (GraphPad Software, San Diego, Calif.) or in Genedata Screener® (Genedata, Basel, Switzerland).

[3] = read-out: OPM-2 10% FBS IC50 IP, OPM-2 cells, 10% FBS, 16 h, CellTiter-Glo
[4] = read-out: OPM-2 10% FBS IC50 IP (μM), OPM-2 cells, 10% FBS, 16 h, CellTiter-Glo

recombinant human Mcl-1 (Mcl-1/Bim interaction), sequence (Q07820 171-327): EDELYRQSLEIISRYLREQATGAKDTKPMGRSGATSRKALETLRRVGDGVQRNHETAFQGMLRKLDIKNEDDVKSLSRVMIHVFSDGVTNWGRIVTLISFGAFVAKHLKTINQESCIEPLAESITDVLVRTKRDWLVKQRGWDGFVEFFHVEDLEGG

In the case of `CO[C@@]1(C#CCCc2ccncn2)/C=C/C[C@H](C)[C@@H](C)S(=O)(=O)NC(=O)c2ccc3c(c2)N(C[C@@H]2CC[C@H]21)C[C@@]1(CCCc2cc(Cl)ccc21)CO3` [Example 100519, (1S,3′R,6′R,7′S,8′E,11′S,12′R)-6-chloro-7′-methoxy-11′,12′-dimethyl-7′-(4-(4-pyrimidinyl)-1-butyn-1-yl)-3,4-dihydro-2H,15′H-spiro[naphthalene-1,22′-[20]oxa[13]thia[1,14]diazatetracyclo [14.7.2.0~3,6~.0~19,24~]pentacosa[8,16,18,24]tetraen]-15′-one 13′,13′-dioxide], the IC50 [1, 3] is reported as 0.138 µM and the IC50 ([2]; read-out: Mel-1 HTRF IC50) is reported as 0.175 nM.
In the case of `CO[C@@]1(C(=O)N(C)C)/C=C/C[C@H](C)[C@@H](C)S(=O)(=O)NC(=O)c2ccc3c(c2)N(C[C@@H]2CC[C@H]21)C[C@@]1(CCCc2cc(Cl)ccc21)CO3` [Example 176, (1S,3′R,6′R,7′S,8′E,11′S,12′R)-6-chloro-7′-methoxy-N,N,11′,12′-tetramethyl-15′-oxo-3,4-dihydro-2H-spiro[naphthalene-1,22′-[20]oxa[13]thia[1,14]diazatetracyclo[14.7.2.0˜3,6˜.0˜19,24˜]pentacosa[8,16,18,24]tetraene]-7′-carboxamide 13′,13′-dioxide], the IC50 [1, 4] is reported as 0.149 µM and the IC50 ([2]; read-out: Mcl-1 HTRF IC50) is reported as 0.118 nM.
`CCO[C@]1(CN2CCN(C(C)C)[C@H](C)C2)/C=C/C[C@H](C)[C@@H](CCOC)S(=O)(=O)NC(=O)c2ccc3c(c2)N(C[C@@H]2CC[C@H]21)C[C@@]1(CCCc2cc(Cl)ccc21)CO3` [Example 17, (1S,3′R,6′R,7′R,8′E,11′S,12′R)-6-chloro-7′-ethoxy-12′-(2-methoxyethyl)-11′-methyl-7′-(((3R)-3-methyl-4-(1-methylethyl)-1-piperazinyl)methyl)-3,4-dihydro-2H,15′H-spiro[naphthalene-1,22′-[20]oxa[13]thia[1,14]diazatetracyclo[14.7.2.0˜3,6˜.0˜19,24˜]pentacosa[8,16,18,24]tetraen]-15′-one 13′,13′-dioxide] gave an IC50 [1, 4] of 0.034 µM and an IC50 ([2]; read-out: Mcl-1 HTRF IC50) of 0.073 nM.
With `CO[C@@]1(CN2CCN([C@H]3CCOC3)CC2)/C=C/C[C@H](C)[C@@H](C)S(=O)(=O)NC(=O)c2ccc3c(c2)N(C[C@@H]2CC[C@H]21)C[C@@]1(CCCc2cc(Cl)ccc21)CO3` (stereo in doubt) [Example 275] the IC50 [1, 4] was 0.082 µM and the IC50 ([2]; read-out: Mcl-1 HTRF IC50) was 0.176 nM.
`C[C@@H]1[C@@H](C)C/C=C/[C@](O)(CN2CCN3CCOC[C@@H]3C2)[C@@H]2CC[C@H]2CN2C[C@@]3(CCCc4cc(Cl)ccc43)COc3ccc(cc32)C(=O)NS1(=O)=O` [Example 213, (1S,3′R,6′R,7′R,8′E,11′S,12′R)-6-chloro-7′-((9aS)-hexahydropyrazino[2,1-c][1,4]oxazin-8(1H)-ylmethyl)-7′-hydroxy-11′,12′-dimethyl-3,4-dihydro-2H,15′H-spiro[naphthalene-1,22′-[20]oxa[13]thia[1,14]diazatetracyclo[14.7.2.0˜3,6˜.0˜19,24˜]pentacosa[8,16,18,24]tetraen]-15′-one 13′,13′-dioxide] gave an IC50 [1, 4] of 0.4 µM and an IC50 ([2]; read-out: Mcl-1 HTRF IC50) of 0.239 nM.
`CCO[C@]1(CN2CCN(C(C)C)[C@H](C)C2)/C=C/C[C@H](C)[C@@H](C)S(=O)(=O)NC(=O)c2ccc3c(c2)N(C[C@@H]2CC[C@H]21)C[C@@]1(CCCc2cc(Cl)ccc21)CO3` [Example 9, (1S,3′R,6′R,7′R,8′E,11′S,12′R)-6-chloro-7′-ethoxy-11′,12′-dimethyl-7′-(((3R)-3-methyl-4-(1-methylethyl)-1-piperazinyl)methyl)-3,4-dihydro-2H,15′H-spiro[naphthalene-1,22′-[20]oxa[13]thia[1,14]diazatetracyclo[14.7.2.0˜3,6˜.0˜19,24˜]pentacosa[8,16,18,24]tetraen]-15′-one 13′,13′-dioxide] showed an IC50 [1, 4] of 0.05 µM and an IC50 ([2]; read-out: Mcl-1 HTRF IC50) of 0.078 nM.
`CO[C@]1(CN2CCN3CCCC[C@@H]3C2)/C=C/C[C@H](C)[C@@H](CCN(C)C)S(=O)(=O)NC(=O)c2ccc3c(c2)N(C[C@@H]2CC[C@H]21)C[C@@]1(CCCc2cc(Cl)ccc21)CO3` [Example 367, (1S,3′R,6′R,7′R,8′E,11′S,12′R)-6-chloro-12′-(2-(dimethylamino)ethyl)-7′-methoxy-11′-methyl-7′-((9aR)-octahydro-2H-pyrido[1,2-a]pyrazin-2-ylmethyl)-3,4-dihydro-2H,15′H-spiro[naphthalene-1,22′-[20]oxa[13]thia[1,14]diazatetracyclo[14.7.2.0˜3,6˜.0˜19,24˜]pentacosa[8,16,18,24]tetraen]-15′-one 13′,13′-dioxide] gave an IC50 [1, 4] of 0.273 µM and an IC50 ([2]; read-out: Mcl-1 HTRF IC50) of 0.201 nM.
In the case of `CO[C@@]1(CN2CCN3CCOC[C@@H]3C2)/C=C/C[C@H](C)[C@@H](CCCl)S(=O)(=O)NC(=O)c2ccc3c(c2)N(C[C@@H]2CC[C@H]21)C[C@@]1(CCCc2cc(Cl)ccc21)CO3` [Example 366, (1S,3′R,6′R,7′S,8′E,11′S,12′R)-6-chloro-12′-(2-chloroethyl)-7′-((9aS)-hexahydropyrazino[2,1-c][1,4]oxazin-8(1H)-ylmethyl)-7′-methoxy-11′-methyl-3,4-dihydro-2H,15′H-spiro[naphthalene-1,22′-[20]oxa[13]thia[1,14]diazatetracyclo[14.7.2.0˜3,6˜.0˜19,24˜]pentacosa[8,16,18,24]tetraen]-15′-one 13′,13′-dioxide], the IC50 [1, 4] is reported as 0.133 µM and the IC50 ([2]; read-out: Mcl-1 HTRF IC50) is reported as 0.248 nM.
Work on `CC(C)CO[C@@]1(CN2CCN(C3COC3)CC2)/C=C/C[C@H](C)[C@@H](C)S(=O)(=O)NC(=O)c2ccc3c(c2)N(C[C@@H]2CC[C@H]21)C[C@@]1(CCCc2cc(Cl)ccc21)CO3` [Example 348, (1S,3′R,6′R,7′S,8′E,11′S,12′R)-6-chloro-11′,12′-dimethyl-7′-(2-methylpropoxy)-7′-((4-(3-oxetanyl)-1-piperazinyl)methyl)-3,4-dihydro-2H,15′H-spiro[naphthalene-1,22′-[20]oxa[13]thia[1,14]diazatetracyclo[14.7.2.0˜3,6˜.0˜19,24˜]pentacosa[8,16,18,24]tetraen]-15′-one 13′,13′-dioxide] yielded an IC50 [1, 4] of 5.36 µM and an IC50 ([2]; read-out: Mcl-1 HTRF IC50) of 2.62 nM.
Work on `CO[C@]1(CN2CCN3CCCC[C@@H]3C2)/C=C/C[C@H](C)[C@@H](CCO)S(=O)(=O)NC(=O)c2ccc3c(c2)N(C[C@@H]2CC[C@H]21)C[C@@]1(CCCc2cc(Cl)ccc21)CO3` [Example 358, (1S,3′R,6′R,7′R,8′E,11′S,12′R)-6-chloro-12′-(2-hydroxyethyl)-7′-methoxy-11′-methyl-7′-((9aR)-octahydro-2H-pyrido[1,2-a]pyrazin-2-ylmethyl)-3,4-dihydro-2H,15′H-spiro[naphthalene-1,22′-[20]oxa[13]thia[1,14]diazatetracyclo[14.7.2.0˜3,6˜.0˜19,24˜]pentacosa[8,16,18,24]tetraen]-15′-one 13′,13′-dioxide] yielded an IC50 [1, 4] of 0.144 µM and an IC50 ([2]; read-out: Mcl-1 HTRF IC50) of 0.066 nM.
`COCC[C@@H]1[C@@H](C)C/C=C/[C@](CN2CCN3CCOC[C@@H]3C2)(OC)[C@@H]2CC[C@H]2CN2C[C@@]3(CCCc4cc(Cl)ccc43)COc3ccc(nc32)C(=O)NS1(=O)=O` [Example 20, (1S,3′R,6′R,7′S,8′E,11′S,12′R)-6-chloro-7′-((9aS)-hexahydropyrazino[2,1-c][1,4]oxazin-8(1H)-ylmethyl)-7′-methoxy-12′-(2-methoxyethyl)-11′-methyl-3,4-dihydro-2H,15′H-spiro[naphthalene-1,22′-[20]oxa[13]thia[1,14,25]triazatetracyclo[14.7.2.0˜3,6˜.0˜19,24˜]pentacosa[8,16,18,24]tetraen]-15′-one 13′,13′-dioxide] gave an IC50 [1, 4] of 0.022 µM and an IC50 ([2]; read-out: Mcl-1 HTRF IC50) of 0.082 nM.
`CO[C@@]1(CN2CCN3CCCC[C@@H]3C2)/C=C/C[C@H](C)[C@@H](Cc2ccccc2)S(=O)(=O)NC(=O)c2ccc3c(c2)N(C[C@@H]2CC[C@H]21)C[C@@]1(CCCc2cc(Cl)ccc21)CO3` (single isomer, unassigned) [Example 104] was tested, and the IC50 [1, 4] was 0.782 µM and the IC50 ([2]; read-out: Mcl-1 HTRF IC50) was 1.12 nM.
`CO[C@@]1(C#CCCN2CCS(=O)(=O)CC2)/C=C/C[C@H](C)[C@@H](C)S(=O)(=O)NC(=O)c2ccc3c(c2)N(C[C@@H]2CC[C@H]21)C[C@@]1(CCCc2cc(Cl)ccc21)CO3` [Example 100456, (1S,3′R,6′R,7′S,8′E,11′S,12′R)-6-chloro-7′-(4-(1,1-dioxido-4-thiomorpholinyl)-1-butyn-1-yl)-7′-methoxy-11′,12′-dimethyl-3,4-dihydro-2H,15′H-spiro[naphthalene-1,22′-[20]oxa[13]thia[1,14]diazatetracyclo [14.7.2.0~3,6~.0~19,24~]pentacosa[8,16,18,24]tetraen]-15′-one 13′,13′-dioxide] showed an IC50 [1, 3] of 1.23 µM and an IC50 ([2]; read-out: Mel-1 HTRF IC50) of 0.565 nM.
With `C[C@@H]1[C@@H](C)C/C=C/[C@@](O)(CN2CCN3CCOC[C@@H]3C2)[C@@H]2CC[C@H]2CN2C[C@@]3(CCCc4cc(Cl)ccc43)COc3ccc(cc32)C(=O)NS1(=O)=O` [Example 193, (1S,3′R,6′R,7′S,8′E,11′S,12′R)-6-chloro-7′-((9aS)-hexahydropyrazino[2,1-c][1,4]oxazin-8(1H)-ylmethyl)-7′-hydroxy-11′,12′-dimethyl-3,4-dihydro-2H,15′H-spiro[naphthalene-1,22′-[20]oxa[13]thia[1,14]diazatetracyclo[14.7.2.0˜3,6˜.0˜19,24˜]pentacosa[8,16,18,24]tetraen]-15′-one 13′,13′-dioxide] the IC50 [1, 4] was 0.023 µM and the IC50 ([2]; read-out: Mcl-1 HTRF IC50) was 0.096 nM.
`CO[C@]1(CN2CCN3CCCCC[C@@H]3C2)/C=C/C[C@H](C)[C@@H](C)S(=O)(=O)NC(=O)c2ccc3c(c2)N(C[C@@H]2CC[C@H]21)C[C@@]1(CCCc2cc(Cl)ccc21)CO3` (stereo in doubt) [Example 87] was tested, and the IC50 [1, 4] was 0.141 µM and the IC50 ([2]; read-out: Mcl-1 HTRF IC50) was 0.127 nM.
